Where “and” joins values, the source holds several entries; their conditions need not be identical. Identical values can stand only once.
target: SARS-CoV-2 Main Protease (SARS-CoV-2) (UniProt P0DTD1)

Row | SMILES | IC50
1 | O=C(Cc1cc(Cl)cc(NCc2ccc(Oc3ccccc3)cc2)c1)Nc1cncc2ccccc12 | 5.82 µM
2 | COC(=O)c1cc(/C=c2\sc(=C(C#N)C#N)n(-c3cccc(C(F)(F)F)c3)c2=O)oc1C | > 99.5 µM
3 | O=C1CC(NC(=O)C2CCOc3ccc(Cl)cc32)CN1 (centres undefined) | > 99.5 µM
4 | Cc1cc(C(=O)CCl)c(C)n1NC(=O)c1n[nH]c(=O)c2ccccc12 | 6.05 µM
5 | Cn1ncc2c(NCc3ccc4cccnc4c3)ncnc21 | > 99.5 µM
6 | O=C(CCl)Nc1nc2c(S(=O)(=O)NCCc3ccccc3)cccc2s1 | 5.03 µM and 14.2 µM and 37.5 µM
7 | O=C1N(c2cncc3ccccc23)CCC12CN(S(=O)(=O)CC1CS(=O)(=O)C1)Cc1ccc(Cl)cc12 (centres undefined) | 0.353 µM
8 | CS(=O)(=O)c1ncc(Cl)c(C(=O)Nc2ccccc2Cc2ccccc2)n1 | 0.469 µM and 0.54 µM
9 | O=C(Nc1cncc2ccccc12)C1CN(C(=O)C2CC2)Cc2ccc(Cl)cc21 (centres undefined) | 0.487 µM
10 | O=C(Cc1cccc(Cl)c1)Nc1[nH]nc2cc(F)ccc12 | > 99.5 µM
11 | C=CC(=O)NCC(=O)N(Cc1ccccc1)C[C@@]1(O)CN2CCC1CC2 (stereo in doubt) | > 99.5 µM
12 | O=C(Cc1cc(Cl)cc(Nc2ccc(-n3ccnc3)cc2)c1)Nc1cncc2ccccc12 | 2.46 µM
13 | NCc1cn(CC(=O)N(CC(=O)N2CCNCC2)c2ccc(-c3ccccc3)cc2)nn1 | > 99.5 µM
14 | Cn1ncc2c(NC(=O)Cc3cccc(Cl)c3)cncc21 | 34 µM
15 | N#Cc1ccc2c(NC(=O)Cc3cccc(Cl)c3)cncc2c1 | 9 µM
16 | CN(c1cc(Cl)cc(CC(=O)Nc2cncc3ccccc23)c1)C(c1ccccc1)c1ccccc1 | 2.34 µM
17 | COC(=O)[C@H]1C[C@H](NC(=O)C(c2cccnc2)N(C(=O)c2cocn2)c2ccc(C(C)(C)C)cc2)CN1C(=O)OC(C)(C)C (stereo in doubt) | 0.837 µM
18 | O=C(NCCc1cccc(F)c1)C(c1cccnc1)N(C(=O)c1cocn1)c1cnc(C2CCC2)nc1 (centres undefined) | 69.1 µM
19 | O=C(Cc1cc(Cl)cc(Nc2ccc3c(c2)OCCO3)c1)Nc1cncc2ccccc12 | 2.12 µM
20 | O=C1CC2(CCOc3ccc(Cl)cc32)CN1c1cncc2ccccc12 (centres undefined) | 6.74 µM
21 | CN(Cc1cccc(Cl)c1)C(=O)Cn1nnc2ccccc21 | > 99.5 µM
22 | O=C(CCl)N1CCN(C(c2ccccc2)C2CCCCC2)CC1 (centres undefined) | 5.72 µM and 2.98 µM
23 | C=CC(=O)N(c1cc(C(C)(C)C)on1)C(C(=O)NCCc1cccc(F)c1)c1cncc(C#N)c1 (centres undefined) | > 99.5 µM
24 | Cc1ccncc1NC(=O)Cc1cccc(-c2cn[nH]c2)c1 | 53.2 µM
25 | Cc1noc(C)c1CCNC(=O)Nc1cn(CC(C)C)c(=O)c2ccccc12 | 27.7 µM

Row | SMILES | IC50
26 | O=C(CCl)N1CCCN(S(=O)(=O)c2ccc(F)cc2)CC1 | 44 µM
27 | C[C@H]1CN(C(=O)OC(C)(C)C)CCN1c1cc(Cl)cc(CC(=O)Nc2cncc3ccccc23)c1 (stereo in doubt) | 2.19 µM
28 | COC1(CS(=O)(=O)N2CC(C(=O)Nc3cncc4cc(S(C)(=O)=O)ccc34)c3cc(Cl)ccc3C2=O)CC1 (centres undefined) | 0.773 µM
29 | COC(=O)CNC(=O)C(c1cccnc1)N(C(=O)c1cocn1)c1ccc(C(C)(C)C)cc1 (centres undefined) | 10.8 µM
30 | O=C(Nc1cncc2sc(Cl)cc12)C1CCOc2ccc(Cl)cc21 (centres undefined) | 1.03 µM
31 | COc1ccc(N(C(=O)c2ccco2)C(C(=O)NCCc2cccc(F)c2)c2cccnc2)cc1NC(=O)C1CCCCC1 (centres undefined) | 62.7 µM
32 | O=C(Cc1cccc(Cl)c1)Nc1ncn2ccccc12 | > 99.5 µM
33 | O=C(Nc1cnc2ccccn12)C1CCOc2ccc(Cl)cc21 (centres undefined) | 3.26 µM
34 | O=C(NCCc1cccc(F)c1)C(c1cccnc1)N(C(=O)c1cnc[nH]1)C1CCC2OCCC2C1 (centres undefined) | > 99 µM
35 | O=C(Cc1cc(Cl)cc(Nc2ccc(OCc3ccccc3)cc2)c1)Nc1cncc2ccccc12 | 8.23 µM
36 | CC1CN(Cc2cccc(Cl)c2)CCN1C(=O)CCl (centres undefined) | 7.73 µM
37 | CCCc1cc2c(cc1S(=O)(=O)N1CCN(c3ccccc3OC)CC1)OCO2 | > 99.5 µM
38 | CC(C)(C#N)CS(=O)(=O)N1Cc2ccc(Cl)cc2C2(CCN(c3cncc4ccccc34)C2=O)C1 (centres undefined) | 0.448 µM
39 | O=C(Cc1cccc(Cl)c1)Nc1cncc2c1OCCC2 | 10.1 µM and 14 µM
40 | O=C1C(=O)N(Cc2ccc(Br)cc2)c2ccccc21 | > 198 µM
41 | O=C(Nc1cncc2ccccc12)C1CCOc2c(O)ccc(Cl)c21 (centres undefined) | > 99.5 µM
42 | O=C(Cc1cc(Cl)cc(Nc2ncnc(Cl)c2Cl)c1)Nc1cncc2ccccc12 | 2.06 µM
43 | CC(C)(C)c1ccc(-c2nnc(Sc3cnc([N+](=O)[O-])s3)o2)cc1 | 7.29 µM and 2.38 µM
44 | NS(=O)(=O)CCc1ccccc1CN1CCN(C(=O)CCl)CC1 | 2.72 µM
45 | O=C(NCCc1cccc(F)c1)C(c1cccnc1)N(C(=O)c1cocn1)C1CCCCCC1 (centres undefined) | > 99.5 µM
46 | Cc1ccc(Nc2cc(Cl)cc(CC(=O)Nc3cncc4ccccc34)c2)c(Br)c1 | 1.9 µM
47 | O=C(NCCc1cccc(F)c1)C(c1cccnc1)N(Cc1ccccc1)C(=O)c1cnc[nH]1 (centres undefined) | > 99 µM
48 | CC1(CS(=O)(=O)N2Cc3ccc(Cl)cc3C(C(=O)Nc3cncc4ccccc34)C2)CC1 (centres undefined) | 0.098 µM
49 | O=C(Cc1cc(Cl)cc(Nc2ncccc2C(F)(F)F)c1)Nc1cncc2ccccc12 | 1.94 µM

Source: the COVID Moonshot data (paper PMC7615835)
